Measurements: patent publication US8258114B2, “Modulation of glucose-6-phosphatase translocase expression” (Isis Pharmaceuticals, Inc., priority 2004, dated 2012)
Read-outs that look alike come from different tables or passages of the source.

What was measured:
[1] = Plasma triglycerides, cholesterol, free fatty acids, transaminases and lactate in db/db mice (Table 7); format: in vivo, mouse
Procedure: Seven-week old male C57B1/6J-Lepr db/db mice (Jackson Laboratory, Bar Harbor, Me.) were fed a diet with a fat content of about 14% (Formulab Diet 5008) and were subcutaneously injected with ISIS 116847 (SEQ ID NO: 143), ISIS 141923 (SEQ ID NO: 144), or ISIS 148985 (SEQ ID NO: 118), an antisense inhibitor of glucose-6-phosphatase translocase, […] weeks. […] Saline-injected animals served as controls. 48 hours after the eighth and final dose was administered, mice were sacrificed and target levels were evaluated in liver. RNA isolation and target mRNA expression level quantitation were performed as described by other examples herein.
To further assess the physiological effects resulting from inhibition of target mRNA, the db/db mice were evaluated at the end of the treatment period for plasma triglycerides, plasma cholesterol, free fatty acids (FFA), lactate and plasma transaminase levels. The transaminases ALT and AST are indicators of liver function. Plasma triglycerides, cholesterol, free fatty acids, and transaminases were measured by routine clinical analyzer instruments (e.g. Olympus Clinical Analyzer, Melville, N.Y.). Results are presented in table 7 as the averages from seven animals per treatment group.

[2] = Liver triglycerides and glycogen stores in db/db mice (Table 8); format: in vivo, mouse
Procedure: Seven-week old male C57B1/6J-Lepr db/db mice (Jackson Laboratory, Bar Harbor, Me.) were fed a diet with a fat content of about 14% (Formulab Diet 5008) and were subcutaneously injected with ISIS 116847 (SEQ ID NO: 143), ISIS 141923 (SEQ ID NO: 144), or ISIS 148985 (SEQ ID NO: 118), an antisense inhibitor of glucose-6-phosphatase translocase, […] […] Saline-injected animals served as controls. 48 hours after the eighth and final dose was administered, mice were sacrificed and target levels were evaluated in liver. RNA isolation and target mRNA expression level quantitation were performed as described by other examples herein.
Patients with the human glycogen storage disease type 1b have mutations in the glucose-6-phosphatase translocase gene. Because one manifestation of these mutations is a defect in hepatic glycogen deposition, the db/db mice were further evaluated at the end of the treatment period for liver glycogen stores. Tissue glycogen levels were measured using the Glucose Trinder Reagent (Sigma-Aldrich, St. Louis, Mo.). Tissue triglyceride levels were measured using a Triglyceride GPO Assay from Roche Diagnostics (Indianapolis, Ind.). Liver triglyceride levels were used to assess hepatic steatosis, or accumulation of lipids in the liver. Hepatic steatosis was also assessed by routine histological analysis of frozen liver tissue sections stained with oil red 0 stain, which is commonly used to visualize lipid deposits, and counterstained with hematoxylin and eosin, to visualize nuclei and cytoplasm, respectively. Data are presented in Table 8 as the averages from 5 animals per treatment group.

[3] = system: glucose-6-phosphatase translocase mRNA; assay: Target mRNA reduction in liver of ob/ob mice; format: in vivo, mouse; conditions: 25 mg/kg s.c. twice weekly, eight doses
Procedure: Seven-week old male C57B1/6J-Lep ob/ob mice (Jackson Laboratory, Bar Harbor, Me.) were fed a diet with a fat content of about 22% and were subcutaneously injected with oligonucleotides at a dose of 25 mg/kg two times per week. A total of eight doses were administered. Glucose-6-phosphatase translocase antisense oligonucleotides used were ISIS 148985 (SEQ ID NO: 118) and ISIS 149008 (SEQ ID NO: 141). […]; incorporated herein as SEQ ID NO: 143), targeted to mouse PTEN, was used as a positive control. Saline-injected animals served as negative controls. […] Glucose-6-phosphatase translocase mRNA levels in ob/ob mouse livers were measured at the end of the study using RIBOGREENTM RNA quantification reagent (Molecular Probes, Inc. Eugene, Oreg.) as taught in previous examples above.

[4] = mouse, in vivo, sc, 25 mg/kg
Procedure: (§1) Seven-week old male C57B1/6J-Lep ob/ob mice (Jackson Laboratory, Bar Harbor, Me.) were fed a diet with a fat content of about 22% and were subcutaneously injected with oligonucleotides at a dose of 25 mg/kg two times per week. A total of eight doses were administered. Glucose-6-phosphatase translocase antisense oligonucleotides used were ISIS 148985 (SEQ ID NO: 118) and ISIS 149008 (SEQ ID NO: 141). ISIS 116847 ([…]; incorporated herein as SEQ ID NO: 143), targeted to mouse PTEN, was used as a positive control. Saline-injected animals served as negative controls. Animals were sacrificed 48 hours after the last dose of oligonucleotide was administered, and liver triglycerides, liver glycogen, and target reduction in liver were measured.
Hepatic steatosis, or buildup of lipids in the liver, was assessed by measuring the liver triglyceride content. Tissue triglycerides were measured with a Triglyceride GPO assay from Roche Diagnostics (Indianapolis, Ind.). Data are presented as averages from 5 animals per treatment group. Triglycerides were approximately 178 mg/g for saline treated mice, 162 mg/g for ISIS 149008-treated mice, 168 mg/g for ISIS 148985-treated mice, and 187 mg/g for ISIS 116847 (PTEN)-treated mice. Thus liver triglycerides were not increased in antisense-treated animals.
Tissue glycogen was measured using the Glucose Trinder Reagent (Sigma-Aldrich, St. Louis, Mo.). Glycogen levels of mice treated with saline alone were approximately 31 mg/g of tissue. Levels in mice treated with the positive control antisense compound ISIS 116847, targeted to PTEN, had levels of approximately 25 mg/g. Mice treated with ISIS 149008 or 148985, the antisense inhibitors of glucose-6-phosphatase translocase, had glycogen levels of approximately 31 mg/g and 30 mg/g, respectively.

ob/ob mice = assay: Fed and fasted plasma glucose in ob/ob mice; format: in vivo, mouse; conditions: 25 mg/kg s.c. twice weekly; for fasted plasma glucose: week 3, overnight fast, saline 297
Procedure: as §1
The effects of target inhibition on glucose metabolism were evaluated in the ob/ob mice treated as described above. Routine clinical analyzer instruments (Olympus Clinical Analyzer, Melville, N.Y.) were used to measure plasma glucose. Plasma glucose was measured prior to antisense oligonucleotide treatment (week 0) and during the second and fourth week of treatment. Fasted glucose measurements were made during week 3 after an overnight (about 14 hours) fast. Data are presented as the average from seven animals per treatment group.

[5] = 25 mg/kg twice weekly 4 weeks (25 mg/mL [sic]), saline 0.8
[6] = 25 mg/kg twice weekly 4 weeks (25 mg/mL [sic]), saline 56
[7] = 25 mg/kg twice weekly 4 weeks (25 mg/mL [sic]), saline 59
[8] = 25 mg/kg twice weekly 4 weeks (25 mg/mL [sic]), saline 108
[9] = 25 mg/kg twice weekly 4 weeks (25 mg/mL [sic]), saline 152
[10] = 25 mg/kg twice weekly 4 weeks (25 mg/mL [sic]), saline 213
[11] = 25 mg/kg twice weekly 4 weeks (25 mg/mL [sic]), saline 25
[12] = 25 mg/kg twice weekly 4 weeks (25 mg/mL [sic]), saline 47
[13] = week 0 (prior to treatment), saline 339
[14] = dose 12.5 mg/mL [sic], twice weekly 4 weeks
[15] = dose printed 6 mg/mL, twice weekly 4 weeks

Sequence | Free Fatty Acids [1, 5] [mEq/L] | ALT [1, 6] [IU/L] | AST [1, 7] [IU/L] | Lactate [1, 8] [mg/dL] | Cholesterol [1, 9] [mg/dL] | Plasma Triglycerides [1, 10] [mg/dL] | Liver Triglycerides [2, 11] [mg/g] | Liver Glycogen [2, 12] [mg/g] | Glucose-6-phosphatase translocase mRNA levels in liver, reduction compared to saline [3] | Liver Triglycerides [4] [mg/g] | Liver glycogen levels [4] | fed plasma glucose (ob/ob mice; [13]) | fed plasma glucose (ob/ob mice; week 2, saline 401) [mg/dL] | fasted plasma glucose (ob/ob mice) | fed plasma glucose (ob/ob mice; week 4, saline 372) [mg/dL] | other results
CCTTCCCTGAAGGTTCCTCC (chemistry not given here) [ISIS 141923, scrambled control oligonucleotide, negative control, reference compound] | 0.9 | 72 | 56 | 128 | 167 | 166 | 30 | 43 |  |  |  |  |  |  |  | 
CTGCTAGCCTCTGGATTTGA (chemistry not given here) [ISIS 116847, positive control oligonucleotide targeted to mouse PTEN, reference compound] | 0.8 | 70 | 62 | 131 | 161 | 166 | 67 | 39 | approximately 36% | ~187 | approximately 25 mg/g | approximately 339 mg/dL | ~230 | approximately 286 mg/dL | ~188 | 
GCTCCATAGCGAGGACTCGA (chemistry not given here) [ISIS 148985] | 1.1 | 73 | 48 | 105 | 164 | 202 |  | 47 | approximately 52% | ~168 | ~30 mg/g | approximately 348 mg/dL | ~315 | approximately 293 mg/dL | ~241 | 
TATACAAGTCGGTTTGCCCT (chemistry not given here) [ISIS 149008] | 0.9 | 68 | 55 | 129 | 167 | 197 | 58 | 45 | approximately 87% | ~162 | approximately 31 mg/g | approximately 344 mg/dL | ~249 | approximately 237 mg/dL | ~153 | ALT [1, 14]: 64 IU/L; AST [1, 14]: 56 IU/L; Cholesterol [1, 14]: 172 mg/dL; Free Fatty Acids [1, 14]: 1.0 mEq/L; Lactate [1, 14]: 127 mg/dL; Plasma Triglycerides [1, 14]: 247 mg/dL; ALT [1, 15]: 59 IU/L; AST [1, 15]: 49 IU/L; Cholesterol [1, 15]: 158 mg/dL; Free Fatty Acids [1, 15]: 0.9 mEq/L; Lactate [1, 15]: 125 mg/dL; Plasma Triglycerides [1, 15]: 205 mg/dL; Liver Glycogen ([2]; dose 12.5 mg/mL [sic]): 45 mg/g; Liver Triglycerides ([2]; dose 12.5 mg/mL [sic]): 41 mg/g; Liver Glycogen ([2]; dose printed 6 mg/mL): 48 mg/g; Liver Triglycerides ([2]; dose printed 6 mg/mL): 33 mg/g
